Laboratory results as given in US20220105041A1, “METHOD FOR MANUFACTURING A SOLID ADMINISTRATION FORM AND SOLID ADMINISTRATION” (priority 2019, published 2022).

Test: Dissolution (release of caffeine) of 3D printed tablets, paddle method, Sotax AT 7smart
Type: physicochemical
Details: 900 ml 0.1 n HCl, 37° C., paddle 100 rpm, UV 272 nm
Experimental: Release of caffeine as active ingredient is determined using the Sotax Freisetzungsapparatur Sotax AT 7smart (Sotax AG, Lörrach, Germany) […]
Each sample is collected in a test tube with the automatic sampler.
Device: Release apparatus: Sotax AT 7smart (Sotax AG, Lörrach, Germany), Photometer Agilent 8453 (Agilent Technologies, Waldbronn, Germany)
Temperature of medium: 37° C.
Cuvette layer thickness: 10 mm
FIG. 31 illustrates results achieved by dissolution measurement of 3D printed caffeine containing tablets in 900 ml of 0.1 n HCl. […] To dissolute and release the full API amount of a filled tablet (100%) needs 360 minutes for entire release of the comprising API, while a 3D printed tablet, 50% filled, already releases 100% of the comprising API amount after app 30 minutes in the dissolution equipment. The time measured is […] dissolving pure crystalline caffeine particles tested in comparison by 100% after app 5 minutes.

SMILES: Cn1c(=O)c2c(ncn2C)n(C)c1=O [pure crystalline caffeine, Caffeine]
- time to release 100% (full amount) of API caffeine: ~5 min
